Experimental data published in patent US8685953B2, “Linear and cyclic guanidine derivatives, method of preparation and uses thereof” (Universita Degli Studi Di Siena, priority 2008, dated 2014).
In brackets after ≈: the same amount, converted by molar mass.

Legend:
Assay in all cases: MIC determination by AFST-EUCAST standard methodology
[1] = test system: C. parapsilosis ATCC 34136; assay type: cell-based; settings: 24 h, visually and spectrophotometrically, read-out: Antifungal activity, expressed as MIC50
Protocol: (§1) Determination of MICs by AFST-EUCAST Standard Methodology
(§2) Assay medium. The assay medium was RPMI […] without NaHCO3 and with L-glutamine (Sigma Aldrich, Italy), buffered at pH 7.0 with 0.165 M morpholinepropanesulphonic acid (Sigma Aldrich, Italy) and supplemented with 2% (w/v) glucose. The medium, prepared as double-strength solution, was sterilized by filtration and diluted 1:2 (v/v) with the fungal inoculum prepared in sterile distilled water.
(§3) The yeast isolates were grown on Sabouraud dextrose agar (Oxoid, Madrid, Spain) for 48 h at 37° C. before testing. Suspensions were prepared by combining five distinct colonies of each culture of >1 mm diameter. A spectrophotometric procedure for inoculum preparation was used. The final inoculum suspension, prepared in sterile distilled water, contained between 0.5·10^5 and 2.5·10^5 cfu/mL.
(§4) Stock solutions of test compounds were prepared in 100% dimethyl sulfoxide. Stock solutions were prepared as 100× concentration relative to the highest concentration in the antifungal activity test, and frozen at −70° C. until used.
(§5) Sterile plastic micro titration plates containing flat-bottomed wells were used. The plates contained serial dilution of the antifungal agents with a volume of assay medium of 100 μL/well. Two drug-free medium wells were used as sterility and growth controls. The trays were inoculated with 100 μL/well of the final inoculum, with the exception of sterility control wells. The range of concentrations tested for each drug was 1.25-80 μM. The microtitration plates were incubated at 37° C. for 24 h. The minimal inhibitory concentrations (MICs) were determined at 24 h both visually and spectrophotometrically.
(§6) By visual endpoint determination, MICs were determined according to a S-1-R scale, with S (susceptible) indicating an optical clear culture, I (intermediate susceptibility) indicating a slightly hazy culture, and R (resistant) indicating no reduction in turbidity. The MIC50 was defined as the lowest concentration of a drug which correspond to a S culture.
(§7) Microtitration plates were stirred using a microtitration plate shaker before reading to ensure uniform turbidity. MICs were obtained by measuring the absorbance at 450 nm with a microtitration plate reader. The value of the blank was subtracted from reading of the rest of the wells. Two endpoints were defined for each antifungal agent tested, with MIC80 indicating the lowest drug concentration resulting in a reduction of growth of 80% or more (determined spectrophotometrically) compared with the growth of the control, and MIC50 indicating the lowest drug concentration resulting in a reduction in growth of 50% (determined spectrophotometrically) compared with the growth of the control. The MIC50 was also defined as the spectrophotometric endpoint.

[2] = test system: C. parapsilosis 64E; assay type: cell-based; settings: 24 h, visually and spectrophotometrically, read-out: Antifungal activity, expressed as MIC50
Protocol: as §1, §2, §3, §4, §5, §6, §7

[3] = test system: C. krusei ATCC 14243; assay type: cell-based; settings: 24 h, visually and spectrophotometrically, read-out: Antifungal activity, expressed as MIC50
Protocol: as §1, §2, §3, §4, §5, §6, §7

[4] = test system: C. krusei 193T; assay type: cell-based; settings: 24 h, visually and spectrophotometrically, read-out: Antifungal activity, expressed as MIC50
Protocol: as §1, §2, §3, §4, §5, §6, §7

[5] = test system: C. glabrata 70E; assay type: cell-based; settings: C. glabrata 70E; 24 h, visually and spectrophotometrically; read-out: Antifungal activity, expressed as MIC50
Protocol: as §1, §2, §3, §4, §5, §6, §7

[6] = test system: C. tropicalis 86E; assay type: cell-based; settings: 24 h, visually and spectrophotometrically, read-out: Antifungal activity, expressed as MIC50
Protocol: as §1, §2, §3, §4, §5, §6, §7

[7] = test system: C. parapsilosis 81E; assay type: cell-based; settings: 24 h, visually and spectrophotometrically, read-out: Antifungal activity, expressed as MIC50
Protocol: as §1, §2, §3, §4, §5, §6, §7

[8] = test system: C. albicans 53T; assay type: cell-based, Candida albicans; settings: 24 h, visually and spectrophotometrically, read-out: Antifungal activity, expressed as MIC50
Protocol: as §1, §2, §3, §4, §5, §6, §7

[9] = test system: C. albicans 15T; assay type: cell-based, Candida albicans; settings: 24 h, visually and spectrophotometrically, read-out: Antifungal activity, expressed as MIC50
Protocol: as §1, §2, §3, §4, §5, §6, §7

[10] = test system: C. albicans 4T; assay type: cell-based, Candida albicans; settings: 24 h, visually and spectrophotometrically, read-out: Antifungal activity, expressed as MIC50
Protocol: as §1, §2, §3, §4, §5, §6, §7

[11] = test system: C. albicans ATCC 60193; assay type: cell-based, Candida albicans; settings: 24 h, visually and spectrophotometrically, read-out: Antifungal activity, expressed as MIC50
Protocol: as §1, §2, §3, §4, §5, §6, §7

| MIC50 [1] | MIC50 [2] | MIC50 [3] | MIC50 [4] | MIC50 [5] | MIC50 [6] | MIC50 [7] | MIC50 [8] | MIC50 [9] | MIC50 [10] | MIC50 [11] | Structure (SMILES) |
| --- | --- | --- | --- | --- | --- | --- | --- | --- | --- | --- | --- |
| 80 µM (≈ 32.8 µg/mL) | 5 µM (≈ 2.05 µg/mL) | 5 µM (≈ 2.05 µg/mL) | 10 µM (≈ 4.1 µg/mL) | 20 µM (≈ 8.19 µg/mL) | 5 µM (≈ 2.05 µg/mL) | 20 µM (≈ 8.19 µg/mL) | 10 µM (≈ 4.1 µg/mL) | 20 µM (≈ 8.19 µg/mL) | 10 µM (≈ 4.1 µg/mL) | 20 µM (≈ 8.19 µg/mL) | N=C(N)NCCCCCCCCNCCCCCCCCNC(=N)NCC1CC1 [Compound 12c] |
| >80 µM | >80 µM | 40 µM (≈ 16.9 µg/mL) | 20 µM (≈ 8.47 µg/mL) | 80 µM (≈ 33.9 µg/mL) | 20 µM (≈ 8.47 µg/mL) | 40 µM (≈ 16.9 µg/mL) | 80 µM (≈ 33.9 µg/mL) | 40 µM (≈ 16.9 µg/mL) | 80 µM (≈ 33.9 µg/mL) | 80 µM (≈ 33.9 µg/mL) | CC(C)=CCNC(=N)NCCCCCCCCNCCCCCCCCNC(=N)N [Compound 12f] |
| 80 µM (≈ 37.7 µg/mL) | 20 µM (≈ 9.43 µg/mL) | 20 µM (≈ 9.43 µg/mL) | 10 µM (≈ 4.72 µg/mL) | 40 µM (≈ 18.9 µg/mL) | 2.5 µM (≈ 1.18 µg/mL) | 20 µM (≈ 9.43 µg/mL) | 2.5 µM (≈ 1.18 µg/mL) | 5 µM (≈ 2.36 µg/mL) | 2.5 µM (≈ 1.18 µg/mL) | 2.5 µM (≈ 1.18 µg/mL) | N=C(NCCCCCCCCN1CCCCCCCCNC(=N)NC1=O)NCc1ccccc1 [Compound 13a] |
| 40 µM (≈ 16.8 µg/mL) | 40 µM (≈ 16.8 µg/mL) | 80 µM (≈ 33.6 µg/mL) | 40 µM (≈ 16.8 µg/mL) | 80 µM (≈ 33.6 µg/mL) | 5 µM (≈ 2.1 µg/mL) | 80 µM (≈ 33.6 µg/mL) | 5 µM (≈ 2.1 µg/mL) | 2.5 µM (≈ 1.05 µg/mL) | 80 µM (≈ 33.6 µg/mL) | 2.5 µM (≈ 1.05 µg/mL) | C#CCNC(=N)NCCCCCCCCN1CCCCCCCCNC(=N)NC1=O [Compound 13b] |
| 5 µM (≈ 2.18 µg/mL) | 5 µM (≈ 2.18 µg/mL) | 5 µM (≈ 2.18 µg/mL) | 5 µM (≈ 2.18 µg/mL) | 20 µM (≈ 8.71 µg/mL) | 1.25 µM (≈ 0.545 µg/mL) | 5 µM (≈ 2.18 µg/mL) | 2.5 µM (≈ 1.09 µg/mL) | 1.25 µM (≈ 0.545 µg/mL) | 1.25 µM (≈ 0.545 µg/mL) | 2.5 µM (≈ 1.09 µg/mL) | CC=CCNC(=N)NCCCCCCCCN1CCCCCCCCNC(=N)NC1=O [Compound 13d] |
| >80 µM | >80 µM | 40 µM (≈ 17.4 µg/mL) | 80 µM (≈ 34.9 µg/mL) | 80 µM (≈ 34.9 µg/mL) | 40 µM (≈ 17.4 µg/mL) | >80 µM | 40 µM (≈ 17.4 µg/mL) | 20 µM (≈ 8.71 µg/mL) | 40 µM (≈ 17.4 µg/mL) | 20 µM (≈ 8.71 µg/mL) | C=C(C)CNC(=N)NCCCCCCCCN1CCCCCCCCNC(=N)NC1=O [Compound 13e] |
